In patent publication US20260285850A1, “SUBSTITUTED OXAZOLIDINONES AND IMIDAZOLINONES AS HERBICIDES” (FMC CORPORATION, priority 2023, published 2026):

Tests used:
Assay type in all cases: in vivo
[1] = system: wheat (Triticum aestivum); assay: Test A postemergence application, visual injury rating 0-100; conditions: Postemergence
Text: (§1) Seeds of plant species selected from barnyardgrass (Echinochloa crus-galli), blackgrass (Alopecurus myosuroides), corn (Zea mays), foxtail, giant (giant foxtail, Setaria faberi), green foxtail (Setaria viridis), goosegrass (Eleusine indica), kochia (Bassia scoparia), oat, wild (wild oat, Avena fatua), palmer (palmer amaranth, palmer pigweed, Amaranthus palmeri), ragweed (common ragweed, Ambrosia artemisiifolia), ryegrass, Italian (italian ryegrass, Lolium multiflorum), soybean (Glycine max) and wheat (Triticum aestivum) were planted into a blend of loam soil and sand and treated preemergence with a directed soil spray using test chemicals formulated in a non-phytotoxic solvent mixture which included a surfactant.
(§2) At the same time, plants selected from these crops and weed species and also galium (catchweed bedstraw, Galium aparine) and horseweed (Erigeron canadensis) were planted in pots containing the same blend of loam soil and sand and treated with postemergence applications of test chemicals formulated in the same manner. Plants ranged in height from 2 to 10 cm and were in the one- to two-leaf stage for the postemergence treatment. Treated plants and untreated controls were maintained in a greenhouse for 10 days, after which time all treated plants were compared to untreated controls and visually evaluated for injury. Plant response ratings, summarized in Table A, are based on a 0 to 100 scale where 0 is no effect and 100 is complete control. A dash (-) response means no test result.

[2] = system: palmer (palmer amaranth, palmer pigweed, Amaranthus palmeri); assay: as above; conditions: Postemergence
Text: as §1, §2

[3] = system: ryegrass, Italian (italian ryegrass, Lolium multiflorum); assay: as above; conditions: Postemergence
Text: as §1, §2

kochia (Bassia scoparia) [4] = assay: as above; conditions: Postemergence
Text: as §1, §2

soybean (Glycine max) [5] = assay: as above; conditions: Postemergence
Text: as §1, §2

[6] = system: oat, wild (wild oat, Avena fatua); assay: as above; conditions: Postemergence
Text: as §1, §2

corn (Zea mays) [7] = assay: as above; conditions: Postemergence
Text: as §1, §2

[8] = system: barnyardgrass (Echinochloa crus-galli); assay: as above; conditions: Postemergence
Text: as §1, §2

[9] = system: galium (catchweed bedstraw, Galium aparine); assay: as above; conditions: Postemergence
Text: as §1, §2

[10] = system: blackgrass (Alopecurus myosuroides); assay: as above; conditions: Postemergence
Text: as §1, §2

[11] = system: ragweed (common ragweed, Ambrosia artemisiifolia); assay: as above; conditions: Postemergence
Text: as §1, §2

[12] = system: horseweed (Erigeron canadensis); assay: as above; conditions: Postemergence
Text: as §1, §2

[13] = system: wheat (Triticum aestivum); assay: Test A preemergence soil spray, visual injury rating 0-100; conditions: 10 days, 0 = no effect, 100 = complete control
Text: as §1, §2

[14] = system: palmer (palmer amaranth, palmer pigweed, Amaranthus palmeri); assay: as above; conditions: 10 days, 0 = no effect, 100 = complete control
Text: as §1, §2

[15] = system: ryegrass, Italian (italian ryegrass, Lolium multiflorum); assay: as above; conditions: 10 days, 0 = no effect, 100 = complete control
Text: as §1, §2

kochia (Bassia scoparia) [16] = assay: as above; conditions: 10 days, 0 = no effect, 100 = complete control
Text: as §1, §2

soybean (Glycine max) [17] = assay: as above; conditions: 10 days, 0 = no effect, 100 = complete control
Text: as §1, §2

[18] = system: oat, wild (wild oat, Avena fatua); assay: as above; conditions: 10 days, 0 = no effect, 100 = complete control
Text: as §1, §2

corn (Zea mays) [19] = assay: as above; conditions: 10 days, 0 = no effect, 100 = complete control
Text: as §1, §2

[20] = system: barnyardgrass (Echinochloa crus-galli); assay: as above; conditions: 10 days, 0 = no effect, 100 = complete control
Text: as §1, §2

[21] = system: blackgrass (Alopecurus myosuroides); assay: as above; conditions: 10 days, 0 = no effect, 100 = complete control
Text: as §1, §2

[22] = system: ragweed (common ragweed, Ambrosia artemisiifolia); assay: as above; conditions: 10 days, 0 = no effect, 100 = complete control
Text: as §1, §2

[23] = 31 g ai/ha, greenhouse 10 days, 0 no effect, 100 complete control
[24] = 125 g ai/ha, 10 days, 0 is no effect, 100 is complete control

CCCS(=O)(=O)OC(=O)C1C=CC(NC(=O)C2(C)CN(c3cc(Cl)cc(Cl)c3)C(=O)O2)C1 (mixture of isomers) [Compound 79]
80: Wheat plant response rating (0 to 100 scale) [1, 23] | Kochia plant response rating (0 to 100 scale) (kochia (Bassia scoparia) [4]; [24]) | Galium plant response rating (0 to 100 scale) [9, 23] | Galium plant response rating (0 to 100 scale) [9, 24] | Wheat plant response rating (0 to 100 scale) ([13]; 125 g ai/ha) | Amaranth, Palmer plant response rating (0-100) ([14]; 31 g ai/ha) | Ryegrass, Italian plant response rating (0 to 100 scale) ([15]; 125 g ai/ha)
70: Amaranth, Palmer / Pigweed, Palmer plant response rating (0 to 100 scale) [2, 23] | Kochia plant response rating (0 to 100 scale) (kochia (Bassia scoparia) [4]; [23]) | Horseweed plant response rating (0 to 100 scale) [12, 24] | Kochia plant response rating (0 to 100 scale) (kochia (Bassia scoparia) [16]; 125 g ai/ha) | Soybean plant response rating (0 to 100 scale) (soybean (Glycine max) [17]; 125 g ai/ha)
40: Soybean plant response rating (0 to 100 scale) (soybean (Glycine max) [5]; [23]) | Horseweed plant response rating (0 to 100 scale) [12, 23]
10: Wheat plant response rating (0-100) ([13]; 31 g ai/ha) | Blackgrass plant response rating (0-100) ([21]; 31 g ai/ha)
50: Ryegrass, Italian plant response rating (0 to 100 scale) [3, 23] | Ragweed plant response rating (0 to 100 scale) [11, 23]
30: Kochia plant response rating (0-100) (kochia (Bassia scoparia) [16]; 31 g ai/ha) | Oat, Wild plant response rating (0 to 100 scale) ([18]; 125 g ai/ha) | Corn plant response rating (0 to 100 scale) (corn (Zea mays) [19]; 125 g ai/ha) | Barnyardgrass plant response rating (0-100) ([20]; 31 g ai/ha) | Blackgrass plant response rating (0 to 100 scale) ([21]; 125 g ai/ha)
90: Wheat plant response rating (0 to 100 scale) [1, 24] | Amaranth, Palmer / Pigweed, Palmer plant response rating (0 to 100 scale) [2, 24] | Soybean plant response rating (0 to 100 scale) (soybean (Glycine max) [5]; [24]) | Oat, Wild plant response rating (0 to 100 scale) [6, 23] | Oat, Wild plant response rating (0 to 100 scale) [6, 24] | Corn plant response rating (0 to 100 scale) (corn (Zea mays) [7]; [23]) | Barnyardgrass plant response rating (0 to 100 scale) [8, 23] | Barnyardgrass plant response rating (0 to 100 scale) [8, 24] | Blackgrass plant response rating (0 to 100 scale) [10, 24] | Amaranth, Palmer plant response rating (0 to 100 scale) ([14]; 125 g ai/ha) | Barnyardgrass plant response rating (0 to 100 scale) ([20]; 125 g ai/ha)
100: Corn plant response rating (0 to 100 scale) (corn (Zea mays) [7]; [24])
0: Soybean plant response rating (0-100) (soybean (Glycine max) [17]; 31 g ai/ha) | Corn plant response rating (0-100) (corn (Zea mays) [19]; 31 g ai/ha) | Ragweed plant response rating (0-100) ([22]; 31 g ai/ha)
20: Ryegrass, Italian plant response rating (0-100) ([15]; 31 g ai/ha) | Oat, Wild plant response rating (0-100) ([18]; 31 g ai/ha) | Ragweed plant response rating (0 to 100 scale) ([22]; 125 g ai/ha)
60: Ryegrass, Italian plant response rating (0 to 100 scale) [3, 24] | Blackgrass plant response rating (0 to 100 scale) [10, 23] | Ragweed plant response rating (0 to 100 scale) [11, 24]
